Data on 8 compounds can be found in patent US20250152599A1 (priority 2020, published 2025).

The nature of series [1]: in vitro. The following applies: human.
Series [2] deals with HCoV 229E. Kind of series: microbe, parasite or virus in culture. The note with it: unidentified human coronavirus.
In series [3] the test system is novel coronavirus (SARS-CoV-2). Nature of the series: microbe, parasite or virus in culture. It counts as cell-based. The note with it: for pEC50: Severe acute respiratory syndrome coronavirus 2, Vero, read-out: EC50 for inhibiting the novel coronavirus.
Series [4] concerns Vero cells. The note with it: for CC10: African green monkey.
The test system of series [5] is HCoV 229E.
Series [6] relates to MRC5 cells. The note with it: human.
Series [7] in a line: in vitro. The note with it: African green monkey.
The subject of series [8] is novel coronavirus. Kind of series: Inhibitory effect of PI0101 on the novel coronavirus, 96-well plate, 76 hours. It counts as cell-based, SARS-CoV-2. The note with it: Severe acute respiratory syndrome coronavirus 2, novel coronavirus 100 TCID50/well.
Series [9] has as its target PI4KIIIα (Homo sapiens, UniProt P42356). The following applies: read-out: IC50 of inhibitory effect on PI4KIIIα; cited from earlier work.
The nature of series [10]: in vitro.

pEC50, pIC50: −log10 of the molar value. Where two headings read alike, the source gives them in different places.

Sequence of PI4KIIIα (P42356 whole entry): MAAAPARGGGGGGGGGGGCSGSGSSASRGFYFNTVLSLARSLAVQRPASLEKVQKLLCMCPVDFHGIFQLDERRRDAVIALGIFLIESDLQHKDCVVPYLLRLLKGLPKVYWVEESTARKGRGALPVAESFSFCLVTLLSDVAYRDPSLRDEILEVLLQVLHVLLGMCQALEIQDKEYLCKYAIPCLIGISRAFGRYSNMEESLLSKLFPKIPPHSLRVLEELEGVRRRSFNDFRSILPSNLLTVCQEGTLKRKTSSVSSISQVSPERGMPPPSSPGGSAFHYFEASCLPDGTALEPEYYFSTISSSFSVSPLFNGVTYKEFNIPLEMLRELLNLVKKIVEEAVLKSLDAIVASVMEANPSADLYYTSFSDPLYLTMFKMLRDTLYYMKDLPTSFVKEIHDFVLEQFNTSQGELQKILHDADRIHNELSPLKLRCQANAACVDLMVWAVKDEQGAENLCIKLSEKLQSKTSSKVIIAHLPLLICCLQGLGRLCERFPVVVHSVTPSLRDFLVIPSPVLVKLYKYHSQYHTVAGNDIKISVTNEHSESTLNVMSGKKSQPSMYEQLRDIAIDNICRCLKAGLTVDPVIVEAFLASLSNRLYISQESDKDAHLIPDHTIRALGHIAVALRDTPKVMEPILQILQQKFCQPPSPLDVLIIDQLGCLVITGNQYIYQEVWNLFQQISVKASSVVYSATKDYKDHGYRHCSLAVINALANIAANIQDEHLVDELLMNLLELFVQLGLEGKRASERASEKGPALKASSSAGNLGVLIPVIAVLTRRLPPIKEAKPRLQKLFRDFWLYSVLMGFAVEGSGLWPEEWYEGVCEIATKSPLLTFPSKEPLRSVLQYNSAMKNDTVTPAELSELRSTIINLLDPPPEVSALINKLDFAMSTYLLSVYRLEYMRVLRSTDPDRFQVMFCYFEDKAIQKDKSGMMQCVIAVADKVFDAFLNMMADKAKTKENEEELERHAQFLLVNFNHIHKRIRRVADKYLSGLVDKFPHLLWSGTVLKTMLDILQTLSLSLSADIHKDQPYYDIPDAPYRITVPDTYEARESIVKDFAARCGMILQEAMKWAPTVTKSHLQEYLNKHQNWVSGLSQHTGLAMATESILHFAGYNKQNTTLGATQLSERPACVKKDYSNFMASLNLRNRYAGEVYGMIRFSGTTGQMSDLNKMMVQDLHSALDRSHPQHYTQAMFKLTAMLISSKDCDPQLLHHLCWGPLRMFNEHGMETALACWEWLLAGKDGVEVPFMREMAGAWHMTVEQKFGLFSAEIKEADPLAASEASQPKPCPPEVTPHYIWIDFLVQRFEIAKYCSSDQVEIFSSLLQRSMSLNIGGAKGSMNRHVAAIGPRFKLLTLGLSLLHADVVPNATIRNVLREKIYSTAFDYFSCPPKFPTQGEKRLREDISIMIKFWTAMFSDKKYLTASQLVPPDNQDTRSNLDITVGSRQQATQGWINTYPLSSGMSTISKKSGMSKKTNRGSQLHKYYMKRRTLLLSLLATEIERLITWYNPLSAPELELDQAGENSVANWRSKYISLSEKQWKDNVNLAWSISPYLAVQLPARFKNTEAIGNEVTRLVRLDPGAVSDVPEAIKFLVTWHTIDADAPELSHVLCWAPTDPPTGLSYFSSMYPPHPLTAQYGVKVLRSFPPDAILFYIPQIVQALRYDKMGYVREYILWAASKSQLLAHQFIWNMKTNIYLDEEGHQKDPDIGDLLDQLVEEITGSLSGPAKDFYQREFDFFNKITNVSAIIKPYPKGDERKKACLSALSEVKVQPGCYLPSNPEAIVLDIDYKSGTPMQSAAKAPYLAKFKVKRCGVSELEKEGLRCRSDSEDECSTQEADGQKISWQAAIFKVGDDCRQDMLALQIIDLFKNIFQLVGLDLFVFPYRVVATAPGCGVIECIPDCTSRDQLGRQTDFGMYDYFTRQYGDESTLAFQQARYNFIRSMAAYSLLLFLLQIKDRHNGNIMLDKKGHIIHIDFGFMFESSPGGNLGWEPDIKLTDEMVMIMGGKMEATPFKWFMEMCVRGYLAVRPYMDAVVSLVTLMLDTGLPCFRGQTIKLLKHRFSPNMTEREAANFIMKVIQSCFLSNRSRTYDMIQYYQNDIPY

`O=[As]c1ccc(NC(=O)CCc2ccccc2)cc1` (stereo not drawn) [YL-05]: the CC50 in series [1] is > 0.8 µM. The negative-log EC50 (pEC50) in series [2] (MRC5, 72 h) is < 6.70.
As to `CC(=O)Nc1nc(C)c(-c2ccc(Cl)c(S(=O)(=O)NCCO)c2)s1` [PIK-93], in [3], the “inhibitory effect on the novel coronavirus” value is reported as “no significant inhibitory effect”. The “toxic effect on Vero cells” value in series [4] is recorded as “no significant toxic effect”.
As for `COc1ccc(S(=O)(=O)Nc2ccc([As]=O)cc2)cc1` (stereo not drawn) [YL-10], in series [5], the pEC50 is 5.40 and the “SI (CC50/EC50)” value was determined as 3.55. For the same compound, in series [6], the CC50 was found to be 14 µM.
As to `CCN(CC)CCCC(C)Nc1ccnc2cc(Cl)ccc12` (stereo not drawn) [Chloroquine phosphate], in series [3], the negative-log EC50 (pEC50) was 4.30. This compound also showed a CC10 in series [4] of 120 µM.
Turning to `CCC(CC)COC(=O)[C@H](C)N[P@](=O)(OC[C@H]1O[C@@](C#N)(c2ccc3c(N)ncnn23)[C@H](O)[C@@H]1O)Oc1ccccc1` [Remdesivir], the figures for the pEC50 in series [3] and in series [2] (MRC5) were 6.28 and 7.58, respectively. Besides, the CC10 in series [4] amounted to 55 µM. The “SI (CC50/EC50)” value in series [5] (the first test) is recorded as >3785.01; in [5] (the second test), 2338.60. For the same compound, the CC50 in series [6] turned out to be 30.7 µM; in [7], 208 µM. In addition, the viability in series [7] was > 90%.
In [6], `O=[As]c1ccc(NS(=O)(=O)c2ccc(F)cc2)cc1` (stereo not drawn) [YL-09] came in with a CC50 of 13.9 µM.
`O=[As]c1ccc(NS(=O)(=O)c2ccc(C(F)(F)F)cc2)cc1` (stereo not drawn) [YL-11]: in [5], the pEC50 is 5.68 and the “SI (CC50/EC50)” value is on record as 3.03. The compound further had a CC50 in series [6] of 6.37 µM.
On to `COc1ccc2c(O[C@@H]3C[C@H]4C(=O)N[C@]5(C(=O)NS(=O)(=O)C6CC6)C[C@H]5/C=C\CCCCN(C)C(=O)[C@@H]4C3)cc(-c3nc(C(C)C)cs3)nc2c1C` [PI0101, Simeprevir], for which the pEC50 in series [8] was 5.41; in series [2] (MRC5, 72 h) it was 5.47. The “SI (CC50/EC50)” value in series [5] (the second test) came out at 2.48. Besides, the pIC50 in series [9] is 6.70. For the same compound, the CC50 in [10] is > 10 µM; in [1], 8.46 µM.

In general, pEC50 refers to −log10 of the EC50, conventionally taken in molar units. As a reminder, the viability is a read-out of living cells in per cent, often relative to untreated cells. As usually defined, the pIC50 is the negative decadic logarithm of the IC50, by convention in mol/L.
